Test results as given in patent publication US20100278733A1, “COMPOSITION FOR DIAGNOSIS OF AMYLOID-RELATED DISEASE” (priority 2007, published 2010).

Assays:
Aβ(1-40) aggregate = biological target: T1, Aβ(1-40) aggregate (Homo sapiens, UniProt P05067); assay: In-vitro binding experiment of chalcone derivatives using Aβ aggregate (Reference Example 1); conditions: in words; radioactivity on filter in presence vs absence of Aβ aggregate, FIG. 14; compound numbers of Reference Example 1
T1 construct: Amyloid β protein (Human, 1-40) [HCl form]; purchased Peptide Institute, Inc
Description: As a radioactive iodine-125 (^125I), IODINE-125 (74 MBq) manufactured by Amersham Biosciences was used. Reverse phase HPLC was performed at a flow rate of 1.0 mL/min using Cosmosil 5C18-AR Column (4.6×150 mm) manufactured by Nacalai Tesque Inc. and ultrapure water (A) and acetonitrile (B) (A:B=40:60) as an elution solvent. ^1H-NMR was measured using Varian Gemini 300 and tetramethylsilane as an internal standard substance. Mass spectrometry was performed using JEOL IMS-DX300. Amyloid β protein (Human, 1-40) [HCl form] and Amyloid β protein (Human, 1-42) [TFA form] were purchased from Peptide Institute, Inc., and special grade reagents were used as other reagents.
The Aβ aggregate was dissolved in a buffer containing 10 mM sodium phosphate and 1 mM EDTA (pH 7.4) at a concentration of 0.5 mg/mL, and the mixture was incubated at 37° C. for 36 to 42 h. The binding experiment was performed using 12×75 mm borosilicate glass tubes. 900 μL of 10% ethanol solution, 50 μL (57 nM) of an Aβ(1-40) aggregate solution, and 50 μL of [^125I]Compound 7 or 12 having various concentrations were mixed, and the mixture was allowed to stand at room temperature for 3 h. […] The radioactivities of substances remaining in the filter used for filtration were measured with a γ counter.

Aβ(1-42) aggregate [1] = biological target: T2, Aβ(1-42) aggregate (Homo sapiens, UniProt P05067); assay: Binding inhibition experiment using Aβ(1-42) aggregate, Ki values (Example 2); conditions: radioactive ligand [^125I]CL-NMe2; mean ± standard error of 3 experiments (compound 4: 6 experiments); compound numbers of Example 2; read-out: Ki values calculated by inhibition experiment
T2 construct: Amyloid β protein (Human, 1-42) [TFA form] was purchased from Peptide Institute, Inc; purchased Peptide Institute, Inc
Description: As a radioactive iodine-125 (^125I), Iodine-125 (3.7 GBq/mL) manufactured by MP Biomedicals, Inc. was used. Reverse phase HPLC was performed at a flow rate of 1.0 mL/min using a Cosmosil 5C18-AR-II column (4.6×150 mm) manufactured by Nacalai Tesque Inc. and ultrapure water:acetonitrile=3:7 as an elution solvent. ^1HNMR was measured using Varian Gemini 300 and tetramethylsilane as an internal standard substance. Mass spectrometry was performed using JEOL IMS-DX300. Preparative TLC was performed using 12 PLC plates 20×20-cm-Silica gel 60 F254, 2 mm manufactured by MERCK. Amyloid β protein (Human, 1-42) was purchased from Peptide Institute, Inc., and special grade reagents were used as other reagents.
(§1) Aβ(1-42) was dissolved in 10 mM phosphate buffer containing 1 mM EDTA (pH 7.4) at a concentration of 0.25 mg/mL, and the mixture was incubated at 37° C. for 42 h to prepare an Aβ(1-42) aggregate.
[…] of 10% EtOH solution, […] of a solution of [^125I]4-diethylamino-4′-iodochalcone ([^125I]CL-NMe2) in 10% ethanol, and […] of a sample solution at various concentrations (0 to 20 mM) were mixed, […] of an Aβ(1-42) aggregate solution was finally added, and the mixture was allowed to stand at room temperature for 3 h. Aβ(1-42) aggregate-bound compounds and nonbound compounds were separated with a Brandel M-24R cell harvester using a Whatman GF/B filter. Radioactivities remaining on the filter after filtration were measured with a γ-counter, and inhibition curves were created using Graph Pad Prism 4.0 to calculate inhibition constants (Ki values).

Aβ(1-42) aggregate [2] = biological target: T2, Aβ(1-42) aggregate; assay: Examination of binding site by binding inhibition experiment using Aβ(1-42) aggregate (Example 2); conditions: FIG. 10, compound numbers of Example 2, read-out: Ki for inhibition of binding of [^125I]CL-NMe2 to the Aβ(1-42) aggregate
Description: as §1
850 mL of 10% EtOH solution, […] of [^125I]CL-NMe2 solution, […] of a solution of congo red, thioflavine T, or compound 14 at various concentrations (0 to 20 mM) were mixed, […] of an Aβ(1-42) aggregate solution was finally added, and the mixture was allowed to stand at room temperature for 3 h. Aβ(1-42) aggregate-bound compounds and nonbound compounds were separated with a Brandel M-24R cell harvester using a Whatman GF/B filter. Radioactivities remaining on the filter after filtration were measured with a γ-counter, and inhibition curves were created using Graph Pad Prism 4.0 to calculate inhibition constants.

[3] = test system: senile plaque amyloid and vascular amyloid; assay: Fluorescence staining experiment using brain tissue sections of Alzheimer's disease model mice; type: binding, APP/PS1 double transgenic mouse; conditions: in words; 100 μM in 50% aqueous ethanol, fluorescence microscope, FIG. 11
Description: As an Alzheimer's disease model mouse, APP/PS1 double transgenic mouse was used. The brain was removed, immobilized with 10% formaldehyde, dehydrated with alcohol and xylene, and then paraffin-embedded. The paraffin-embedded brain tissue was cut into a 5-μm section, and the section was treated with xylene, alcohol, and water and deparaffinized. The section was incubated in PBS for 30 min and then in solutions of various chalcone derivatives (100 μM) in 50% aqueous ethanol for 10 min. The section was washed with 50% ethanol and PBS and then examined with a fluorescence microscope (Leica TCS SP2).

[4] = In-vivo radioactivity distribution experiment using normal mice (Example 2); conditions: Example 2 numbering; for In-vivo radioactivity distribution: blood / In-vivo radioactivity distribution: brain / In-vivo radioactivity distribution: heart / In-vivo radioactivity distribution: intestine / In-vivo radioactivity distribution: kidney / In-vivo radioactivity distribution: liver / In-vivo radioactivity distribution: lung / In-vivo radioactivity distribution: pancreas / In-vivo radioactivity distribution: spleen / In-vivo radioactivity distribution: stomach: normal mice, intravenous
Description: Radioactive iodine labeling compounds were diluted with physiological saline containing 10% EtOH. To each of four or five 5-week-old male ddY mice (20 to 25 g) per group, […] of a labeled compound, [^125I]Compound 7, 10, 13, or 14 (0.2 to 0.4 mCi), was administered from the caudal vein. Animals were decapitated at 2, 10, 30, or 60 min, blood was collected, the major organs were isolated, and then weights and radioactivities thereof were measured.

T2 sequence (P05067 672-713 limits assumed): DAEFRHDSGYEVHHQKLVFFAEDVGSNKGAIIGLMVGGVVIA
T1 sequence (P05067 672-711 limits assumed): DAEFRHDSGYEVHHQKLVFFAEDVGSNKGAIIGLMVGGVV

With `CN(C)c1ccc(/C=C/C(=O)c2ccc(I)cc2)cc1` [Compound 12 in Reference Example 1] the “binding property to the Aβ aggregate” value (Aβ(1-40) aggregate) was “strong binding property”.
In the case of `CN(C)c1ccc(C=CC(=O)c2ccc(I)s2)cc1` [Compound 14 in Example 2, 1-(5-iodo-2-thienyl)-3-(4-dimethylaminophenyl)-prop-2-en-1-one], the Ki (Aβ(1-42) aggregate [1]) is reported as 3.9 ± 0.4 nM, the Ki (Aβ(1-42) aggregate [2]) is reported as 4 nM and the “binding property to senile plaque amyloid and vascular amyloid on brain tissue sections” value [3] is reported as “stronger than that of fluorine-containing chalcone derivatives”. The “stability in the organism” value ([4]; in words: radioactivity accumulation in the stomach, retention in blood, deiodination) was “instability in the organism”, the “In-vivo radioactivity distribution: blood” value ([4]; 2 min) was 4.91 (0.71) percent of the dose/g and the “In-vivo radioactivity distribution: brain” value ([4]; 2 min) was 2.40 (0.30) percent of the dose/g. For the same molecule, the “In-vivo radioactivity distribution: heart” value ([4]; 2 min) was 5.05 (0.95) percent of the dose/g, the “In-vivo radioactivity distribution: intestine” value ([4]; 2 min) was 1.73 (0.21) percent of the dose/g and the “In-vivo radioactivity distribution: kidney” value ([4]; 2 min) was 7.41 (1.54) percent of the dose/g. The “In-vivo radioactivity distribution: liver” value ([4]; 2 min) was 9.57 (2.00) percent of the dose/g, the “In-vivo radioactivity distribution: lung” value ([4]; 2 min) was 8.29 (0.99) percent of the dose/g and the “In-vivo radioactivity distribution: pancreas” value ([4]; 2 min) was 3.82 (0.57) percent of the dose/g. For the same molecule, the “In-vivo radioactivity distribution: spleen” value ([4]; 2 min) was 4.05 (0.63) percent of the dose/g, the “In-vivo radioactivity distribution: stomach” value ([4]; 2 min) was 1.21(0.27) percent of the dose and the “In-vivo radioactivity distribution: blood” value ([4]; 10 min) was 3.58 (0.35) percent of the dose/g. The “In-vivo radioactivity distribution: brain” value ([4]; 10 min) was 0.75 (0.31) percent of the dose/g, the “In-vivo radioactivity distribution: heart” value ([4]; 10 min) was 3.02 (0.60) percent of the dose/g and the “In-vivo radioactivity distribution: intestine” value ([4]; 10 min) was 2.57 (0.53) percent of the dose/g. For the same molecule, the “In-vivo radioactivity distribution: kidney” value ([4]; 10 min) was 4.66 (0.68) percent of the dose/g, the “In-vivo radioactivity distribution: liver” value ([4]; 10 min) was 7.10 (1.08) percent of the dose/g and the “In-vivo radioactivity distribution: lung” value ([4]; 10 min) was 5.17 (0.69) percent of the dose/g. For the same molecule, the “In-vivo radioactivity distribution: pancreas” value ([4]; 10 min) was 1.94 (0.80) percent of the dose/g, the “In-vivo radioactivity distribution: spleen” value ([4]; 10 min) was 5.48 (1.02) percent of the dose/g and the “In-vivo radioactivity distribution: stomach” value ([4]; 10 min) was 5.29 (1.24) percent of the dose. The “In-vivo radioactivity distribution: blood” value ([4]; 30 min) was 2.92 (0.60) percent of the dose/g, the “In-vivo radioactivity distribution: brain” value ([4]; 30 min) was 0.31 (0.04) percent of the dose/g and the “In-vivo radioactivity distribution: heart” value ([4]; 30 min) was 1.48 (0.78) percent of the dose/g. For the same molecule, the “In-vivo radioactivity distribution: intestine” value ([4]; 30 min) was 4.05 (0.99) percent of the dose/g, the “In-vivo radioactivity distribution: kidney” value ([4]; 30 min) was 4.31 (1.01) percent of the dose/g and the “In-vivo radioactivity distribution: liver” value ([4]; 30 min) was 5.95 (1.19) percent of the dose/g. For the same molecule, the “In-vivo radioactivity distribution: lung” value ([4]; 30 min) was 3.53 (0.35) percent of the dose/g, the “In-vivo radioactivity distribution: pancreas” value ([4]; 30 min) was 1.95 (0.32) percent of the dose/g and the “In-vivo radioactivity distribution: spleen” value ([4]; 30 min) was 5.01 (1.72) percent of the dose/g. For the same molecule, the “In-vivo radioactivity distribution: stomach” value ([4]; 30 min) was 9.81 (6.47) percent of the dose, the “In-vivo radioactivity distribution: blood” value ([4]; 60 min) was 2.63 (0.45) percent of the dose/g and the “In-vivo radioactivity distribution: brain” value ([4]; 60 min) was 0.21 (0.02) percent of the dose/g. The “In-vivo radioactivity distribution: heart” value ([4]; 60 min) was 1.65 (0.24) percent of the dose/g, the “In-vivo radioactivity distribution: intestine” value ([4]; 60 min) was 4.69 (1.64) percent of the dose/g and the “In-vivo radioactivity distribution: kidney” value ([4]; 60 min) was 2.44 (0.35) percent of the dose/g. The “In-vivo radioactivity distribution: liver” value ([4]; 60 min) was 4.96 (1.27) percent of the dose/g, the “In-vivo radioactivity distribution: lung” value ([4]; 60 min) was 2.87 (0.46) percent of the dose/g and the “In-vivo radioactivity distribution: pancreas” value ([4]; 60 min) was 1.86 (0.27) percent of the dose/g. For the same molecule, the “In-vivo radioactivity distribution: spleen” value ([4]; 60 min) was 3.03 (0.31) percent of the dose/g and the “In-vivo radioactivity distribution: stomach” value ([4]; 60 min) was 8.73 (4.21) percent of the dose.
